Source: PMC5253331 (Biochemical and biophysical research communications, 2016)

Columns and labels:
[1] = target: human PD-L1 on CHO cells stably expressing human PD-L1 (human) (UniProt Q9NZQ7); experiment: ex vivo biodistribution with blocking dose
[2] = target: recombinant human PD-L1(B7-H1)-His-tag protein (human) (UniProt Q9NZQ7); experiment: AlphaScreen or HTRF
[3] = target: human PD-L1 on CHO cells stably expressing human PD-L1 (human) (UniProt Q9NZQ7); experiment: radioligand binding
[4] = target: human PD-L1 on CHO cells stably expressing human PD-L1 (human) (UniProt Q9NZQ7); experiment: PET imaging and ex vivo biodistribution
[5] = test system: hPD-L1 cells (CHO stably expressing human PD-L1) vs CHO cells; experiment: In vitro binding/uptake of [64Cu]WL12 in hPD-L1 and CHO cells; assay type: cell-based, Chinese hamster
[6] = test system: MDAMB231 and SUM149 cells; assay type: cell-based, human; conditions: MDAMB231 high, SUM149 low PD-L1 expression
[7] = test system: hPD-L1 and CHO tumors; experiment: Ex vivo biodistribution and blocking in NSG mice with hPD-L1 and CHO tumors; parameters: species or system mouse; conditions: co-injected with excess WL12 (50 μg, 2 mg/kg), 2 h

Chain of human PD-L1 on CHO cells stably expressing human PD-L1 (human) (Q9NZQ7 19-290): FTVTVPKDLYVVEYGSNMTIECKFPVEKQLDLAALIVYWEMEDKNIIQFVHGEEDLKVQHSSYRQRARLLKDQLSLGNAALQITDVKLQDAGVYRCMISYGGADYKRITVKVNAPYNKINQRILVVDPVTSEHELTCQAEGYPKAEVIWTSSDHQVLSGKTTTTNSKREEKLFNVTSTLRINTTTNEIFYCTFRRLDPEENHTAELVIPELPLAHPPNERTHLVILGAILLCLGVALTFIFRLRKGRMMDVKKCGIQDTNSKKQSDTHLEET
Chain of recombinant human PD-L1(B7-H1)-His-tag protein (human) (Q9NZQ7 19-238): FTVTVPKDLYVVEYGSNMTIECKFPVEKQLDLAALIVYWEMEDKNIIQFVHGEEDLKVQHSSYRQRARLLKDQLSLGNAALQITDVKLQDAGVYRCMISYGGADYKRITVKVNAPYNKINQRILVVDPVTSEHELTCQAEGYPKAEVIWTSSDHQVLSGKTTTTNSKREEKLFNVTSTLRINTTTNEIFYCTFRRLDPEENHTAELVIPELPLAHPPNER

WL12 (peptide)
percent reduction in %ID/g of [64Cu]WL12 in hPD-L1 tumors with excess WL12 [1]: > 75% | IC50 [2]: 0.022 µM

WL12-Cu (peptide)
IC50 [2]: 0.0029 µM

[64Cu]WL12 (peptide)
percent uptake of the incubated dose [3]: > 50% | tumor uptake at 1 h (%ID/g) [4]: 14.9 %ID/g

CCCC[C@H]1C(=O)N(C)[C@@H](CCCC)C(=O)N[C@@H](CCCNC(=O)CCC(C(=O)O)N2CCN(CC(=O)O)CCN(CC(=O)O)CCN(CC(=O)O)CC2)C(=O)N[C@H](C(=O)NCC(N)=O)CSCC(=O)N[C@@H](Cc2ccc(O)cc2)C(=O)N(C)[C@@H](C)C(=O)N[C@@H](CC(N)=O)C(=O)N2CCC[C@H]2C(=O)N[C@@H](Cc2c[nH]cn2)C(=O)N[C@@H](CC(C)C)C(=O)N2C[C@H](O)C[C@H]2C(=O)N[C@@H](Cc2c[nH]c3ccccc23)C(=O)N[C@@H](CO)C(=O)N[C@@H](Cc2cn(C)c3ccccc23)C(=O)N1C (some centres unmarked) [[^64Cu]WL12, metal not drawn]
uptake of the incubated dose in hPD-L1 cells ([5]; hPD-L1 cells incubated with [64Cu]WL12 for 1 h): > 50% | reduction in bound [64Cu]WL12 in the presence of blocking dose of WL12 ([5]; hPD-L1 cells, 1 μM blocking dose of WL12): > 95% | increase in bound radioactivity in hPD-L1 cells compared to negative control CHO cells ([5]; incubation 1 h): 43 fold | uptake of radioactivity in MDAMB231 cells compared to SUM149 cells [6]: Two-fold higher | change in %ID/g in control CHO tumors on blocking [7]: no significant difference | change in kidney uptake on blocking [7]: reduced uptake
